Calls of active or inactive are those of the source. The rule behind the calls is not given here.
Columns and labels:
MCF7 [1] = assay: Induction of apoptosis in human MCF7 cells assessed as necrotic cells at IC50 after 24 to 48 hrs by Annexin V-FITC staining-based flow cytometric analysis (reference value: 0%); format: functional
HepG2 [2] = assay: Induction of apoptosis in human HepG2 cells assessed as late apoptotic cells at IC50 after 24 to 48 hrs by Annexin V-FITC staining-based flow cytometric analysis (reference value: 0%); format: functional
MCF7 [3] = assay: Induction of ROS generation in human MCF7 cells at IC50 after 5 to 6 hrs by DCFDA staining based flow cytometric analysis; format: functional, cell-based
[4] = target: T1, MAP/microtubule affinity-regulating kinase 4 (Homo sapiens) (UniProt Q96L34); assay: Binding affinity to MARK4 (unknown origin) (59 to 368 residues) expressed in Escherichia coli M15 up to 10 uM by fluorescence based Stern-Volmer plot analysis
T1 sequence (whole entry): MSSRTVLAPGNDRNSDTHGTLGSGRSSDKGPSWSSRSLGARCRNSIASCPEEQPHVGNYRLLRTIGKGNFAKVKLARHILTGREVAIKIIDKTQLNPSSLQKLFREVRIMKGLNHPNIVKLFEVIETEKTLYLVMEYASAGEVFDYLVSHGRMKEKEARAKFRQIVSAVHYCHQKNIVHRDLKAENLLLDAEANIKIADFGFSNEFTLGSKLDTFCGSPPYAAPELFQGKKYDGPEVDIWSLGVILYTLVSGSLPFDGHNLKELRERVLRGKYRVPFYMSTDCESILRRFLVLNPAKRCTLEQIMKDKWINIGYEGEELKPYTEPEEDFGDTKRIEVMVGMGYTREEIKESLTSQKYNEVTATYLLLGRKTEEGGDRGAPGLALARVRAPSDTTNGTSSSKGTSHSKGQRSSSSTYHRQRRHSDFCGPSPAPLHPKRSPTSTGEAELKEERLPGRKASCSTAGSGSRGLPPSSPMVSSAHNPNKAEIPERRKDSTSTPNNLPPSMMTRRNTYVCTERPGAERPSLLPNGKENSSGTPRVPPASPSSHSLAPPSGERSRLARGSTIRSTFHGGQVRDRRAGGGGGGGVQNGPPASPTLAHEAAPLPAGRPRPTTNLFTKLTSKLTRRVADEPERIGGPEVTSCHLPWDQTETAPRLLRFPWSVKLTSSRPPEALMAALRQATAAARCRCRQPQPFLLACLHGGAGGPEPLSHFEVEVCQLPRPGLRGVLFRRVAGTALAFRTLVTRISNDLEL

HepG2 [5] = assay: Induction of apoptosis in human HepG2 cells assessed as viable cells at IC50 after 24 to 48 hrs by Annexin V-FITC staining-based flow cytometric analysis relative to control; format: functional
[6] = target: T1, MAP/microtubule affinity-regulating kinase 4 (Homo sapiens); assay: Inhibition of MARK4-mediated tau phosphorylation in human MCF7 cells at IC50 after 24 hrs by flow cytometric analysis; format: cell-based
[7] = target: T1, MAP/microtubule affinity-regulating kinase 4 (Homo sapiens); assay: Inhibition of MARK4 (unknown origin) (59 to 368 residues) expressed in Escherichia coli M15 3 to 10 uM by dot blot assay
HepG2 [8] = assay: Antiproliferative activity against human HepG2 cells after 48 hrs by MTT assay; format: functional, cell-based; conditions: for IC50: HepG2, 48 h
[9] = target: T2, MAP/microtubule affinity-regulating kinase 4 (Homo sapiens, UniProt Q96L34); assay: Inhibition of MARK4 (unknown origin) (59 to 368 residues) expressed in Escherichia coli M15 in presence of [gamma-32P]ATP by ATPase assay
T2 sequence (Q96L34 whole entry): T1 sequence (whole entry)

MCF7 [10] = assay: Antiproliferative activity against human MCF7 cells after 48 hrs by MTT assay; format: functional, cell-based; conditions: for IC50: MCF7, 48 h
HepG2 [11] = assay: Induction of apoptosis in human HepG2 cells assessed as necrotic cells at IC50 after 24 to 48 hrs by Annexin V-FITC staining-based flow cytometric analysis (reference value: 0%); format: functional
MCF7 [12] = assay: Induction of apoptosis in human MCF7 cells assessed as late apoptotic cells at IC50 after 24 to 48 hrs by Annexin V-FITC staining-based flow cytometric analysis (reference value: 0%); format: functional
HepG2 [13] = assay: Induction of apoptosis in human HepG2 cells assessed as early apoptotic cells at IC50 after 24 to 48 hrs by Annexin V-FITC staining-based flow cytometric analysis (reference value: 0%); format: functional
MCF7 [14] = assay: Induction of apoptosis in human MCF7 cells assessed as early apoptotic cells at IC50 after 24 to 48 hrs by Annexin V-FITC staining-based flow cytometric analysis (reference value: 0%); format: functional
[15] = Cytotoxicity against human HEK293 cells assessed as cell viability up to 200 uM after 72 hrs by MTT assay relative to control; format: cell-based; conditions: read-out: Activity
MCF7 [16] = assay: Induction of apoptosis in human MCF7 cells assessed as viable cells at IC50 after 24 to 48 hrs by Annexin V-FITC staining-based flow cytometric analysis relative to control; format: functional

Row | Compound | Activity (MCF7 [1]) [%] | Activity (HepG2 [2]) [%] | Activity (MCF7 [3]) | Activity [4] | Activity (HepG2 [5]) [%] | inhibition [6] | inhibition [7] | Activity (HepG2 [8]) | IC50 (HepG2 [8]) [µM] | IC50 [9] [µM] | Activity (MCF7 [10]) | IC50 (MCF7 [10]) [µM] | Activity (HepG2 [11]) [%] | Activity (MCF7 [12]) [%] | Activity (HepG2 [13]) [%] | Activity (MCF7 [14]) [%] | viability at 72 h [15] [%] | Activity (MCF7 [16]) [%]
1 | COc1ccc(Nc2c(-c3ccco3)oc3ccccc3c2=O)cc1 | 0.027 | 4.79 | Active | Active | 87 | Active | Active | Dose-dependent effect | 19.1 | 5.56 | Dose-dependent effect | 16.2 | 3.12 | 1.21 | 5.13 | 18.7 | 85 | 80.1
2 | O=c1c(Nc2ccc([N+](=O)[O-])cc2)c(-c2ccco2)oc2c(Cl)cc(Cl)cc12 | 1.72 | 6.54 | Active | Active | 80.6 | Active | Active | Dose-dependent effect | 6.45 | 2.12 | Dose-dependent effect | 3.22 | 4.33 | 15.9 | 8.53 | 26.5 | 85 | 55.8
3 | O=c1c(Nc2ccc(I)cc2)c(-c2ccco2)oc2c(Cl)cc(Cl)cc12 | 0.15 | 2.56 | Active | Active | 82.3 | Active | Active | Dose-dependent effect | 5.22 | 1.98 | Dose-dependent effect | 4.32 | 0.013 | 1.9 | 15.2 | 27.9 | 85 | 70.1

— ChEMBL document CHEMBL4265976, “Synthesis, molecular docking and inhibition studies of novel 3-N-aryl substituted-2-heteroarylchromones targeting microtubule affinity regulating kinase 4 inhibitors” (Eur J Med Chem, 2018)
